From patent US20240261292A1, “COMBINATION THERAPIES” (Janssen Pharmaceutica NV, priority 2021, published 2024)
Read-outs that look alike come from different tables or passages of the source.

What was measured:
OCI-AML3 tumors = conditions: established OCI-AML3 tumors, NSG mice, 4 weeks; Azacitidine 2 mg/kg ip QD × 7; Compound A1 30 mg/kg po QD × 28
Description: For survival assessment, results were plotted as the percentage survival against days post tumor implant. Negative clinical signs and/or ≥20% body weight loss was used as a surrogate endpoint for death. Median survival was determined utilizing Kaplan-Meier survival analysis. The percent increased life span (ILS) was calculated as: ((median survival day of treated group—median survival day of control group)/median survival day of control group)×100. Animals failing to reach the surrogate endpoint due to adverse clinical signs (such as ulcerated tumors, body weight loss, etc.) or death unrelated to treatment were censored for the survival assessment.

MOLM-13 tumors [1] = conditions: established MOLM-13 tumors, NSG mice, 4 weeks; Azacitidine 2 mg/kg ip QD × 7; Compound A1 10 mg/kg po QD × 28
Description: 11) Efficacy of Menin-MLL Inhibitor in Combination with Azacitidine, in MOLM-13 (KMT2A-r) IV Model in NSG Mice
Each mouse received an injection of 1×10^5 MOLM-13 cells, and all other parameters were conducted as described for experiment (10).

[2] = Mouse PK (in vivo T1/2 and oral bioavailability); conditions: male, CD-1, mouse, in vivo, fasted male CD-1 mice, formulating agent: A HP-β-CD, A3 Pyrogen free water
Description: 3) Mouse PK (In Vivo T1/2 and Oral Bioavailability)
In vivo pharmacokinetics (PK) were assessed in fasted male CD-1 mice (age 6-8 weeks) following a single intravenous (IV, 0.5 or 1.0 mg/kg administered at 2.5 ml/kg) or oral (PO, 5 mg/kg administered at 10 ml solution/kg) dose of test article formulated in a 20% (w:vol) HP-β-CD solution or in Pyrogen free water.
Plasma and/or whole blood samples were collected from the dorsal metatarsal vein at desired timepoints via serial capillary microsampling (approx. 0.03 mL) using EDTA as an anticoagulant. Concentrations of compound in the plasma and blood samples were analyzed using a qualified LC-MS/MS method. In silico analysis of main pharmacokinetic parameters was performed using WinNonlin (Phoenix™, version 6.1) or similar software.)

[3] = Metabolic stability in mouse liver microsomes; type: in vitro ADME; conditions: liver microsomes, pH 7.4, 0.5 mg/mL microsomes protein, read-out: Mouse LM Clint
Description: 4) Metabolic Stability in Human/Mouse Liver Microsomes
The objective of this study is to measure in vitro metabolic stability of test compound(s) in human and mouse liver microsomes and provide quantitative information on the rate of metabolic turnover (i.e., determination of the apparent intrinsic clearance of test).
Test items were prepared at a stock concentration of 10 mM in DMSO. For determination of metabolic turnover, a final working solution was prepared by adding 2 μL of 10 mM DMSO stock solution for test compound or positive control compounds to 198 μL of acetonitrile (100 μM final concentration).
Incubations were performed as follows: First, liver microsomes were thawed on ice and a master solution containing liver microsomes in 100 mM PBS (phosphate-buffered saline) at pH 7.4 is prepared. Next, the liver microsomes solution was added to the incubation plates and 10 mM NADPH (Nicotinamide-adenine dinucleotide phosphate) was added (MW: 833.4 g/mol; Roche Diagnostics GmbH1, Germany. Dissolved in phosphate buffer (100 mmol/L, pH 7.4)). The mixture was mixed for 10 seconds and pre-warmed in the incubation plate at 37° C. for 10 minutes. The metabolic reaction was initiated with the addition of 5 μL of the 100 μM working solution for test compound or positive control compounds to incubation plate (final test item concentration=1 μM). The reaction final mixture should contain 1 mM NADPH, 0.5 mg/mL microsomes protein and 1 μM test compound or positive control compound in 100 mM PBS at pH 7.4. The percentage of organic solvent in incubation mixture is 1% with DMSO 0.02%.
The reaction was quenched by transferring 50 μL of the incubated mixture at selected time points into the quenching plate containing 200 μL of cold methanol. […]
All calculations were carried out using Microsoft Excel. The slope value, k, was determined by linear regression of the natural logarithm of the remaining percentage of the parent drug vs. incubation time curve.
The in vitro half-life (in vitro t1/2) was determined from the slope value: […]

hERG potassium channel = hERG potassium channel (Homo sapiens (Human), UniProt Q12809); experiment: Membrane potassium current IKr in hERG transfected CHO cells (Protocol 1, QPatch); type: cell-based; conditions: Protocol 1, CHO cells
Chain of hERG potassium channel (Q12809 whole entry): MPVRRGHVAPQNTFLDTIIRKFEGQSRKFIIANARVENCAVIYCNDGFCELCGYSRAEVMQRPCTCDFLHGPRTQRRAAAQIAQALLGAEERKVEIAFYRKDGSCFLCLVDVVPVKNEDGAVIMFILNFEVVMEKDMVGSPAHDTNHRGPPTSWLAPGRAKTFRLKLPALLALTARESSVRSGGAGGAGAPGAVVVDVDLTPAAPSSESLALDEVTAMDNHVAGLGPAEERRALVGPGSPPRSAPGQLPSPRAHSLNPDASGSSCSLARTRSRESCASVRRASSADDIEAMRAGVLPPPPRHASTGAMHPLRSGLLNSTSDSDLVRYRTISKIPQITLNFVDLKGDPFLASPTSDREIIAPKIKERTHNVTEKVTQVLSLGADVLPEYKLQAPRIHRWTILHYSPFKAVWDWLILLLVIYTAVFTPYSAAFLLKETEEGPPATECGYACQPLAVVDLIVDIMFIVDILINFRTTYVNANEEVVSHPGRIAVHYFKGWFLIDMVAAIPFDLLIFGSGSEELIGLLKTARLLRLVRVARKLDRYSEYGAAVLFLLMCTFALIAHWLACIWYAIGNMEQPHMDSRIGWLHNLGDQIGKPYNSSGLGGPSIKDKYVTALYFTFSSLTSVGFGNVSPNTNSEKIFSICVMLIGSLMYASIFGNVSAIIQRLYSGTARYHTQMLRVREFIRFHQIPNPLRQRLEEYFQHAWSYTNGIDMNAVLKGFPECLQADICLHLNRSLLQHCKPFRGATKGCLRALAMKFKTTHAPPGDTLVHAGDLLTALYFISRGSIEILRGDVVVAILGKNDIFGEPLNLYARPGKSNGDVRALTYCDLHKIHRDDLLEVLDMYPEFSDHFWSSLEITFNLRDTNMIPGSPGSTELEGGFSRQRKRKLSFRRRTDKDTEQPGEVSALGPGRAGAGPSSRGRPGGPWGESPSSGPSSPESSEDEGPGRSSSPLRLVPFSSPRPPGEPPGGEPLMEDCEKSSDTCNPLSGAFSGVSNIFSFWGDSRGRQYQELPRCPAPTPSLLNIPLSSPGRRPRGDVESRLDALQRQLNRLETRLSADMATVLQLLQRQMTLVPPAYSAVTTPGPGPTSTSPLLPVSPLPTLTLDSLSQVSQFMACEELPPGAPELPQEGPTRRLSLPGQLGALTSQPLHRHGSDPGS
Description: Experiments were performed using CHO cells stably expressing the hERG potassium channel. Cells were grown at 37° C. and 5% CO2 in culture flasks in Ham's F12 Medium supplemented with 10% heat-inactivated fetal calf serum, hygromycin B (100 μg/ml) and geneticin (100 μg/ml). For use in the automated patch-clamp system QPatch (Sophion) cells were harvested to obtain cell suspension of single cells. […]
Patch-clamp experiments were performed in the voltage-clamp mode and whole-cell currents were recorded with an automated patch-clamp assay utilizing the QPatch system (Sophion). Current signals were amplified and digitized, stored and analyzed by using the QPatch assay software.
The holding potential was −80 mV. The hERG current (K^+-selective outward current) was determined as the maximal tail current at −40 mV after a 2 second depolarization to +60 mV. […] The effect of each concentration was determined after 5 min as an average current of 3 sequential voltage pulses. […]
Concentration/response relations were calculated by non-linear least-squares fits to the individual data points. The half-maximal inhibiting concentration (IC50) was calculated by the fitting routine.

MOLM-13 tumors [4] = experiment: Efficacy of menin-MLL inhibitor in combination with gilteritinib in MOLM-13 (KMT2A-r) IV model; type: in vivo; conditions: established MOLM-13 tumors, NSG mice, 4 weeks; Gilteritinib 10 mg/kg po QD × 28; Compound A1 10 mg/kg po QD × 28
Source text: 12) Efficacy of Menin-MLL Inhibitor in Combination with Gilteritinib, in MOLM-13 (KMT2A-r) IV Model in NSG Mice

## Nc1ncn([C@@H]2O[C@H](CO)[C@@H](O)[C@H]2O)c(=O)n1 [Azacitidine]
OCI-AML3 tumors
  % ILS: *18%
MOLM-13 tumors [1]
  % ILS: *35%

## CCN(C(=O)c1cc(F)ccc1Oc1nncnc1N1CCC2(C1)CN([C@H](CCCN(C)CCOC)C(C)C)C2)C(C)C [Compound A, (R)-N-ethyl-5-fluoro-N-isopropyl-2-((5-(2-(6-((2-methoxyethyl) (methyl)amino)-2-methylhexan-3-yl)-2,6-diazaspiro[3.4]octan-6-yl)-1,2,4-triazin-6-yl)oxy) benzamide]
[2]; iv, 1 mg/kg, single IV 0.5 or 1.0 mg/kg
  half-life: 6.7 h
[2]; po, 5 mg/kg, single PO 5 mg/kg
  bioavailability: 17%
[3]
  microsomal CLint at 1 μM: < 7.5 µL/min/mg
hERG potassium channel
  IC50: > 30.2 µM

## CCc1nc(C(N)=O)c(Nc2ccc(N3CCC(N4CCN(C)CC4)CC3)c(OC)c2)nc1NC1CCOCC1 [Gilteritinib, gilteritinib]
MOLM-13 tumors [4]
  % ILS: *63%
